The values that follow come from ChEMBL document CHEMBL4387753 (Bioorg Med Chem, 2019).

Series [1] has as its system Bacillus pumilus. Nature of the series: Antibacterial activity against Bacillus pumilus CMCC63202 incubated for 24 hrs by CLSI protocol based broth microdilution method. In kind it is functional. The following applies: CMCC63202, 24 h. Background: Dilution methods test growth across graded concentrations, often in twofold steps.
In series [2] the test system is Staphylococcus aureus. Nature of the series: Antibacterial activity against methicillin-resistant Staphylococcus aureus ATCC 43300 incubated for 24 hrs by CLSI protocol based broth microdilution method. The following applies: ATCC 43300, 24 h. In kind it is functional.
Series [3] relates to Bacillus subtilis. Description: Antibacterial activity against Bacillus subtilis ATCC 9372 incubated for 24 hrs by CLSI protocol based broth microdilution method. In kind it is functional. The following applies: ATCC 9372, 24 h.
Series [4] deals with Staphylococcus aureus. Nature of the series: Antibacterial activity against penicillin-resistant Staphylococcus aureus clinical isolate incubated for 24 hrs by CLSI protocol based broth microdilution method. In kind it is functional.
The target in series [5] is T1, Cell division protein FtsZ (Bacillus subtilis (strain 168)) (UniProt P17865).
T1 sequence (whole entry): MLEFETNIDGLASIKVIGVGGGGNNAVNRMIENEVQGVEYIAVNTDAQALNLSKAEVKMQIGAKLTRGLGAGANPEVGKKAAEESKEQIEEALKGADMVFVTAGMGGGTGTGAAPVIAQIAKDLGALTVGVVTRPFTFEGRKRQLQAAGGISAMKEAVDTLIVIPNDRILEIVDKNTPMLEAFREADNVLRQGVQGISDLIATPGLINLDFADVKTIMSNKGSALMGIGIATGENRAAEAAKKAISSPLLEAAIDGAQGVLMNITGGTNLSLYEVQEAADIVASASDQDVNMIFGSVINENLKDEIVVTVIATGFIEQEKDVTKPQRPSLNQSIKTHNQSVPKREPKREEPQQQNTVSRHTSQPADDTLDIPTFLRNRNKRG
Description: Induction of Bacillus subtilis FtsZ polymerization in presence of GTP at 5 ug/ml measured over 30 mins by microtiter plate-based light-scattering assay.

Series [6] can be described thus: Clearance in mouse liver microsomes incubated for 20 mins in presence of NADPH by RP-HPLC analysis. In kind it is ADME, Microsome. (In general: Liver microsomes are a subcellular fraction often used to study metabolism.)
Series [7] can be described thus: Half life in mouse liver microsomes in presence of NADPH by RP-HPLC analysis. Type of series: ADME, Microsome.
Series [8] has as its system Staphylococcus aureus. Description: Antibacterial activity against Staphylococcus aureus ATCC 25923 incubated for 24 hrs by CLSI protocol based broth microdilution method. Type of series: functional. As to conditions: ATCC 25923, 24 h.
Series [9] has as its system Escherichia coli. Nature of the series: Antibacterial activity against Escherichia coli ATCC 25922 incubated for 24 hrs by CLSI protocol based broth microdilution method. In kind it is functional. As to conditions: ATCC 25922, 24 h.
Series [10] can be described thus: Stability in mouse plasma assessed as degradation of compound at 25 ug/ml incubated for 24 hrs by RP-HPLC analysis. In kind it is ADME, cell-free.
In series [11] the test system is Pseudomonas aeruginosa. Nature of the series: Antibacterial activity against Pseudomonas aeruginosa ATCC 27853 incubated for 24 hrs by CLSI protocol based broth microdilution method. Type of series: functional. The following applies: ATCC 27853, 24 h.
Series [12] deals with Staphylococcus aureus. Description: Bactericidal activity against Staphylococcus aureus ATCC 43300 assessed as 3 log reduction in number of colony forming units incubated for 24 hrs followed by aliquots transfer to tryptic soy agar and grown for 24 hrs. In kind it is functional. The following applies: ATCC 43300, 24 h.
Series [13] concerns Staphylococcus aureus. Nature of the series: Bactericidal activity against Staphylococcus aureus ATCC 25923 assessed as 3 log reduction in number of colony forming units incubated for 24 hrs followed by aliquots transfer to tryptic soy agar and grown for 24 hrs. In kind it is functional. As to conditions: ATCC 25923, 24 h.
Series [14] concerns Staphylococcus aureus. Nature of the series: Bactericidal activity against penicillin-resistant Staphylococcus aureus clinical isolate assessed as 3 log reduction in number of colony forming units incubated for 24 hrs followed by aliquots transfer to tryptic soy agar and grown for 24 hrs. Type of series: functional.
For series [15], the system named is Staphylococcus aureus. Description: Bactericidal activity against methicillin-resistant Staphylococcus aureus ATCC 43300 assessed as log reduction in viable bacterial count at 4 ug/ml incubated for 24 hrs by time-kill curve assay. In kind it is functional.
Series [16] has as its system Staphylococcus aureus. Description: Antibacterial activity against Staphylococcus aureus clinical isolate incubated for 24 hrs by CLSI protocol based broth microdilution method. In kind it is functional.
In series [17] the test system is HeLa. Description: Growth inhibition of human HeLa cells incubated for 48 hrs by MTT assay. In kind it is cell-based. A general note: Tetrazolium assays rely on reduction of a dye to a coloured formazan, in cell work by metabolically active cells.
The subject of series [18] is Staphylococcus aureus. Nature of the series: Ratio of MBC for Staphylococcus aureus ATCC 25923 to MIC for Staphylococcus aureus ATCC 25923. Type of series: functional.
Series [19] in a line: Half life in mouse plasma at 25 ug/ml incubated for 24 hrs by RP-HPLC analysis. Type of series: ADME, cell-free.
For series [20], the system named is Bacillus pumilus. Nature of the series: Effect on bacterial cell morphology in Bacillus pumilus CMCC63202 assessed as increase in bacterial cell length at 0.5 times MIC incubated for 18 hrs by phase-contrast optical microscopic analysis. Type of series: functional, organism-based.
In series [21] the target is T1, Cell division protein FtsZ (Bacillus subtilis (strain 168)). Description: Induction of Bacillus subtilis FtsZ polymerization in presence of GTP measured over 30 mins by microtiter plate-based light-scattering assay.
Series [22] has as its system Staphylococcus aureus. Description: Bactericidal activity against methicillin-resistant Staphylococcus aureus ATCC 43300 assessed as log reduction in viable bacterial count at 1 to 8 times MIC incubated for 24 hrs by time-kill curve assay. Type of series: functional.
The test system of series [23] is Staphylococcus aureus. Nature of the series: Bactericidal activity against methicillin-resistant Staphylococcus aureus ATCC 43300 assessed as log reduction in viable bacterial count at 2 ug/ml incubated for 24 hrs by time-kill curve assay. In kind it is functional.

In brackets after ≈: the same amount, converted by molar mass. Activity calls are given as the source filed them.

As usually defined, the MIC is the least concentration at which growth counts as inhibited. By half-life is commonly meant the time needed for the level to fall by half in the phase considered. With `NC(=O)c1c(F)ccc(OCc2nn(-c3ccc(Br)cc3)c(=O)[nH]2)c1F`, the MIC in series [1], in [2], in series [3], in series [4], in [8] and in series [9] was > 64 µg/mL each time. Further, the MIC in series [11] was > 64 µg/mL. In addition, the outcome in series [5] was inactive. In addition, the CLH in series [6] is given as 24.3%. Also, the half-life in series [7] is > 1.5 h. The Stability entry in series [10] is reported as “Stable”.
As for `NC(=O)c1c(F)ccc(OCC2=NN(c3ccc(Br)cc3)C(=O)C2)c1F`, the MIC in series [1], in [2], in [3], in series [4], in [8] and in series [9] was > 64 µg/mL in each case. Also, in [11], the MIC was > 64 µg/mL. Besides, the result in series [5] was inactive.
Broadly, the MBC is the lowest tested concentration that kills the bacteria rather than only halting them. As for `CC(=O)NC[C@H]1CN(c2ccc(N3CCOCC3)c(F)c2)C(=O)O1` [LINEZOLID], the MBC in series [12], in series [13] and in series [14] was > 64 µg/mL in each case. Besides, the minimal inhibitory concentration (MIC) was 2 µg/mL (≈ 5.93 µM) in [1]; 0.5 µg/mL (≈ 1.48 µM) in [3]; 1 µg/mL (≈ 2.96 µM) in series [16]; > 64 µg/mL in [9]; > 64 µg/mL in series [11]. Further, the result in series [5] was inactive. Moreover, the Activity in [15] is reported as 1 log10CFU/ml.
As a reminder, the IC50 is the concentration needed to halve the response being measured. Read a high IC50 as weaker potency. Take `NC(=O)c1c(F)ccc(OCc2nn(-c3ccc(Br)cc3)c(=O)o2)c1F`: in series [17], the IC50 was > 64 µg/mL. Besides, the MBC in series [12], in series [13] and in series [14] was 1 µg/mL (≈ 2.35 µM) throughout. The MIC in series [1] turned out to be 1 µg/mL (≈ 2.35 µM); in [2], 1 µg/mL (≈ 2.35 µM); in series [3], 0.125 µg/mL (≈ 0.293 µM); in [4], 1 µg/mL (≈ 2.35 µM); in series [8], 1 µg/mL (≈ 2.35 µM); in series [16], 0.5 µg/mL (≈ 1.17 µM). Besides, the MIC in series [9] and in series [11] was > 64 µg/mL in each case. The Ratio in series [18] stood at 1. This molecule gave a half-life at 25 ug/ml in series [19] of 2.5 h. Also, the outcome in [20] was Active. The CLH in series [6] is recorded as 24.3%. Moreover, in series [7], the half-life is > 1.5 h. Besides, the Activity entry is “Dose-dependent effect” in series [21] and 4 log10CFU/ml in series [22]. Further, the Stability result in [10] is given as “Unstable”.
For the molecule `CN[C@H](CC(C)C)C(=O)N[C@H]1C(=O)N[C@@H](CC(N)=O)C(=O)N[C@H]2C(=O)N[C@H]3C(=O)N[C@H](C(=O)N[C@H](C(=O)O)c4cc(O)cc(O)c4-c4cc3ccc4O)[C@H](O)c3ccc(c(Cl)c3)Oc3cc2cc(c3O[C@@H]2O[C@H](CO)[C@@H](O)[C@H](O)[C@H]2O[C@H]2C[C@](C)(N)[C@H](O)[C@H](C)O2)Oc2ccc(cc2Cl)[C@H]1O` [VANCOMYCIN], the MBC in series [12] turned out to be 1 µg/mL (≈ 0.69 µM); in series [13], 2 µg/mL (≈ 1.38 µM); in [14], 1 µg/mL (≈ 0.69 µM). Also, the Activity in [23] is listed as 4 log10CFU/ml.
For `NC(=O)c1c(F)ccc(OCc2nc3cc(Cl)cnc3s2)c1F`, the MBC in [12], in series [13] and in series [14] was 1 µg/mL (≈ 2.81 µM) in each case. Besides, in series [23], the Activity is 4 log10CFU/ml. Also, the MIC turned out to be 0.5 µg/mL (≈ 1.41 µM) in series [1]; 1 µg/mL (≈ 2.81 µM) in series [2]; 0.5 µg/mL (≈ 1.41 µM) in [3]; 1 µg/mL (≈ 2.81 µM) in series [4]; 1 µg/mL (≈ 2.81 µM) in [8]; 0.5 µg/mL (≈ 1.41 µM) in [16]. Besides, the minimum inhibitory concentration (MIC) in series [9] and in [11] was > 64 µg/mL throughout. In addition, the Ratio in series [18] came out at 1.
For the molecule `CCn1c(COc2ccc(F)c(C(N)=O)c2F)nn(-c2ccc(Br)cc2)c1=O`, the minimum inhibitory concentration (MIC) in series [1], in series [2], in [3], in series [4], in series [8] and in series [9] was > 64 µg/mL throughout. Besides, the minimum inhibitory concentration (MIC) in [11] was > 64 µg/mL. Further, the result in [5] was inactive.
For the molecule `NC(=O)c1c(F)ccc(OCn2nc(-c3ccc(Cl)cc3)oc2=O)c1F`, the MIC in series [1], in series [2], in series [3], in series [4], in series [8] and in [16] was > 64 µg/mL in each case. Also, the MIC in [9] and in series [11] was > 64 µg/mL each time. Further, in series [5], the outcome was inactive.
Consider `Cc1ccc(-n2nc(COc3ccc(F)c(C(N)=O)c3F)oc2=O)c(C)c1`, for which the MIC in series [1] was found to be 2 µg/mL (≈ 5.33 µM); in series [2], 16 µg/mL (≈ 42.6 µM); in series [3] it was 2 µg/mL (≈ 5.33 µM); in [4], 64 µg/mL (≈ 171 µM); in series [8], 32 µg/mL (≈ 85.3 µM); in [16], 32 µg/mL (≈ 85.3 µM). Further, the MIC in series [9] and in series [11] was > 64 µg/mL throughout.
